According to ChEMBL document CHEMBL1649106, “Structures of 1-Deoxy-D-Xylulose-5-Phosphate Reductoisomerase/Lipophilic Phosphonate Complexes” (ACS Med Chem Lett, 2011):

Columns and labels:
[1] = target: T1, 1-deoxy-D-xylulose 5-phosphate reductoisomerase (Escherichia coli K-12, UniProt P45568); test: Inhibition of Escherichia coli DXR
T1 sequence (P45568 whole entry): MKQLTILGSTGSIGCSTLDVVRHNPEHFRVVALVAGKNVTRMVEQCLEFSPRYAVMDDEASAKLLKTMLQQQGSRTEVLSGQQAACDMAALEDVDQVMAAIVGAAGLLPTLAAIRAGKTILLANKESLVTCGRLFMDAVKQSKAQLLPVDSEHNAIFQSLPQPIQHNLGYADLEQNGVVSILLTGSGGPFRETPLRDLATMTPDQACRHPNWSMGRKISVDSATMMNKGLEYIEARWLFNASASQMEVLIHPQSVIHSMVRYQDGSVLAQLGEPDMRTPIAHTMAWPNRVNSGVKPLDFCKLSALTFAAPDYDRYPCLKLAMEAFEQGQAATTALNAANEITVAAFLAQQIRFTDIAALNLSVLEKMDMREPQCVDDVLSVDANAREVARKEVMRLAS

Plasmodium falciparum = test: Antimalarial activity against Plasmodium falciparum; assay type: functional, organism-based
[2] = Half life in plasma; assay type: ADME, cell-free

EC50 (Plasmodium falciparum) | half-life [2] | Compound | IC50 [1]
250 nM | – | COc1ccc([C@@H](CCN(O)C(C)=O)P(=O)(O)O)cc1 | 459 nM
250 nM | – | CC(=O)N(O)CC[C@H](c1ccc(C)cc1)P(=O)(O)O | 396 nM
250 nM | – | CC(=O)N(O)CC[C@H](c1ccccc1)P(=O)(O)O | –
250 nM | – | CC(=O)N(O)CC[C@H](c1ccc(Cl)c(Cl)c1)P(=O)(O)O | 119 nM
1100 nM | 60 min | O=CN(O)CCCP(=O)(O)O [FOSMIDOMYCIN] | –

More lines, now with the values behind:

Compound | EC50 (Plasmodium falciparum) | half-life [2] | IC50 [1]
CC(=O)N(O)CC[C@H](c1ccc(Cl)cc1)P(=O)(O)O | 250 nM | – | 99 nM
O=CN(O)CCCc1ccc(Cl)c(Cl)c1 | – | – | > 100000 nM
O=P(O)(O)Cc1ccc(Cl)c(Cl)c1 | – | – | > 100000 nM
O=CN(O)CCCc1ccncc1 | – | – | > 100000 nM
O=P(O)(O)Cc1ccncc1 | – | – | 7100 nM
O=P(O)(O)Cc1cccnc1 | – | – | 10000 nM
O=c1ccc(-c2ccccc2)cn1O [1-HYDROXY-5-PHENYLPYRIDIN-2(1H)-ONE] | – | – | 1400 nM
